# Reference: ChEMBL document CHEMBL3745605, “Aspernigrins with anti-HIV-1 activities from the marine-derived fungus Aspergillus niger SCSIO Jcsw6F30” (Bioorg Med Chem Lett, 2016)
# pIC50: −log10 of the molar value. The source made the active and inactive calls. The rule behind the calls is not given here. Bridge positions count the residues as written; N and C are the ends. Square brackets hold non-standard residues; d marks the D form. Peptide text beside a SMILES is read from it.
# Assays:
# [1] = tested on: Human immunodeficiency virus 1; experiment: Antiviral activity against HIV-1 SF162 infected in TZM-bl cells at 50 uM after 2 days by luciferase reporter gene assay; format: functional, cell-based; settings: SF162 ISOLATE
# [2] = tested on: Human immunodeficiency virus 1; experiment: Antiviral activity against HIV-1 SF162 infected in TZM-bl cells after 2 days by luciferase reporter gene assay; format: functional, cell-based; settings: Human immunodeficiency virus 1, SF162 ISOLATE, 48 h
# [3] = Cytotoxicity against human TZM-bl cells after 2 days by colorimetric XTT assay; format: cell-based
# [4] = Selectivity index, ratio of CC50 for human TZM-bl cells to IC50 for HIV-1 SF162 infected in TZM-bl cells; format: functional
SMILES,Activity [1],pIC50 [2],CC50 at 48 h [3] [µM],Ratio CC50/IC50 [4]
COc1cc([C@H](Cc2ccccc2)n2cc(C(N)=O)c(=O)cc2Cc2ccccc2)oc(=O)c1,inactive,,,
COC(=O)[C@@H](C)CC(=O)NC(=O)c1cn([C@@H](Cc2ccccc2)c2cc(OC)cc(=O)o2)c(Cc2ccccc2)cc1=O,inactive,,,
Nc1nc(NC2CC2)c2ncn([C@H]3C=C[C@@H](CO)C3)c2n1 [ABACAVIR],,6.10,,
COc1ccc(S(=O)(=O)O)cc1/N=N/c1c(S(=O)(=O)O)cc2cc(Nc3nc(Nc4ccccc4)nc(Nc4cc(C)c(/N=N/c5cc(S(=O)(=O)O)cc6cc(S(=O)(=O)O)cc(O)c56)cc4OC)n3)ccc2c1O,,5.74,,
CC(C)C[C@@H]1NC(=O)[C@@H](CC(C)C)NC(=O)[C@H](C(C)C)NC(=O)[C@H]2CSSC[C@@H](NC1=O)C(=O)N2 (cyclo(L[dC][dC]V[dL]); disulfide 2-3),,5.85,16.4,11.4
COc1cc(O)c2c(O)c3c(=O)cc(C)oc3cc2c1 [RUBROFUSARIN],,4.25,1020,18.1
COc1cc(OC)c2c(O)c3c(=O)cc(C)oc3cc2c1,inactive,,,
NC(=O)c1c[nH]c(Cc2ccccc2)cc1=O,,4.08,583,7
COc1cc([C@H](Cc2ccccc2)n2cc(C(=O)NC(=O)C[C@H](C)C(=O)O)c(=O)cc2Cc2ccccc2)oc(=O)c1,,5.33,35,7.5
COc1cc(O)cc2cc3c(c(O)c12)C(=O)CC(C)(O)O3 (stereo not drawn),inactive,,,
